Data from US20240047019A1, “MODEL-FREE TIME-INVARIANT EVALUATION OF TRANSPORT AND EFFICACY OF CHEMICALS AND DRUGS” (Seqvera Ltd. Oy, priority 2022, published 2024).
Read-outs that look alike come from different tables or passages of the source.

Legend:
[1] = test system: L-type Ca^2+ current (ICa); conditions: steady-state conditions; cited from earlier work
[2] = test system: L-type Ca^2+ current (ICa); assay: calcium current (ICa) changes in ventricular myocytes with NCX inhibitor; type: cell-based, canine
Source text: In this example the data from publication by Oravecz et.al. was used, where authors have attempted to clarify the underlying mechanism of the limited inotropic action of selective sodium-calcium exchange (NCX) inhibition by a novel inhibitor molecule (ORM-10962) on canine ventricular myocytes. […] The forward mode operation of NCX is considered as the main route of Ca^2+ removal balancing the Ca^2+influx generated by the L-type Ca^2+ current (ICa) and the reverse mode NCX activity. […] These experimental data have been analyzed in the present invention. […] In order to perform time convolution directly, the concentration of ORM-10962 should have been known in the target compartment, but here only the effect size (current measured) has been reported.

[3] = caffeine transport in membrane-separated chip, control tests (bare membrane); type: in vitro ADME; conditions: 0.25 mg/mL
Procedure: In this example data of caffeine transport measurements disclosed in publication are analyzed with a new method. […] The membrane had 0.4 micrometer pore size and was made of polyester track etched (PETE) insert, which was used bare (control tests) and with a double layer of cells (actual tests): human umbilical vein endothelial cells (HUVECs) and BeWo cells (derived from a human choriocarcinoma) to represent the endothelium in the fetal interface and the epithelium in the maternal interface. The mean data used are from three independent experiments.

[4] = test system: placental barrier (HUVECs and BeWo cells); assay: caffeine transport in placenta-on-a-chip, actual tests (double cells layer); type: in vitro ADME, human; conditions: 0.25 mg/mL
[5] = cited from earlier work; for Tested c2(t): 100 mg, mean of 12, cumulative
[6] = clinical; conditions: human, in vivo
Source text: The method used in publication relies on fractional order derivatives with a multi-compartmental model using Laplace transform, which is not a common operation a lab technician usually able to perform. […] The resulting simplified equation for time changes of the concentration in the blood plasma (=the target compartment in the terminology of the recent invention), designated as c2(t) in [6], was expressed with six unknown parameters (d, k02, k21, α1, α2 and the lag time) as:
Clinical data of Popovic et al. have been used representing evaluation of diclofenac pharmacokinetics in a small number of healthy adults during a bioequivalence trial. In the spirit of the present invention, the data from were taken as cumulative concentration of diclofenac, averaged for all 12 patients. Here the initial mass of the drug was known of 100 mg, and the instant volume of distribution (VOD-2) was directly quantifiable by diving this mass for the measured cumulative concentration analyzed (Table 2).

[7] = gentamicin elution from coated Ti-6Al-4V disks into 2 mL distilled water at 37° C.; type: physicochemical; conditions: for c2(t), gentamicin concentration in the target compartment: distilled water 37° C.; for Remained in the coating: of 1395 μg/disk
Procedure: In this example the most detailed in vitro testing conditions have been used. Disk of diameter 15.5 mm and thickness of 2 mm made of medical titanium Grade 5 (Ti-6Al-4V) alloy were uniformly coated with a mixture of 1395 μg/disk gentamicin palmitate and 3745 μg/disk palmitic acid in triplicate (9 disks=3 disks×3 repetitions).
Disks were placed into a glass tube filled with 2 mL distilled water at constant temperature 37° C. and aliquots of 0.050 mL were periodically extracted without refilling the remining volume. The concentration of gentamicin in these samples was measured in mg/L and based on this, the amount of gentamicin in the remaining solution was calculated. The procedure was repeated until 336 h have been accumulated, and the average of three measurements has been calculated, Table 5.
After 336 hours of measurements, totally 0.5 mL of liquid is removed and about 60 μg of the drug is taken off the system. This represents of 25% of the total liquid volume and about 23.5% of the total drug released from the disk. With unknown solubility from the beginning, it is difficult to say how this drug removal affects the solubility rate, diffusion rate (concentration gradient uneven) and about the release kinetics in general (besides just making a curve fitting). As liquid is being periodically removed, the VOD-2 in the target compartment is getting smaller from 2 mL to 1.5 mL (being not constant) and thus the concentration of gentamicin there (c2(t)) is affected too.
For the method of the present invention, exact VOD-1 for the source compartment has been first calculated. For the density of gentamicin palmitate of 1.5 g/cc and palmitic acid of 0.86 g/cc, taking into account the disk surface area of 188.69 mm^2, the expected dense coating thickness is about 28 μm at the beginning of the test, leading to the VOD-1 value (for the source compartment) of 5.285 mm^3. Since VOD-2 is not constant due to aliquots takeoffs, the coefficient of partition is not constant either and will change with time, approaching an equilibrium value (Leq).

[8] = least-squares fit in [6], slow release 100 mg tablet

Compound: O=C(CN1CCC(O)CC1)Nc1ccc(Oc2ccc3c(c2)CCC(c2ccccc2)O3)nc1 (stereo not shown) [ORM-10962]
- reduction of ICa amplitude in the presence vs. absence of the inhibitor [1]: significantly greater
- efficacy parameter LCa ([2]; ICa change per μM of the added drug): 42.123 nA/μM
- characteristic time ([2]; calcium current in myocytes): 1.69 s
- non-dimensional transport constant K ([2]; calcium current in myocytes): 104.5

Compound: Cn1c(=O)c2c(ncn2C)n(C)c1=O [caffeine]
- Characteristic time τ [3]: 40 min
- Transport constant K [3]: 162.77
- kinetic parameter β [3]: 2.0-2.9
- Coefficient of partition Leq ([3]; Control (no cells)): 5.61
- Coefficient of partition Leq ([4]; Actual (double cells layer)): 35.5
- Characteristic time τ ([4]; human): 27 min
- Transport constant K ([4]; human): 6697.34
- kinetic parameter β ([4]; human): 3.2-5.4

Compound: O=C(O)Cc1ccccc1Nc1c(Cl)cccc1Cl [diclofenac]
- Tested c2(t) ([5]; 1.0 h): 0.192 mg/mL
- Tested c2(t) ([5]; 1.5 h): 1.783 mg/mL
- Tested c2(t) ([5]; 2.0 h): 4.725 mg/mL
- Tested c2(t) ([5]; 2.5 h): 7.283 mg/mL
- Tested c2(t) ([5]; 3 h): 9.500 mg/mL
- Tested c2(t) ([5]; 4 h): 11.150 mg/mL
- Tested c2(t) ([5]; 6 h): 12.333 mg/mL
- Tested c2(t) ([5]; 8 h): 12.858 mg/mL
- Tested c2(t) ([5]; 12 h): 12.900 mg/mL
- Tested c2(t) ([5]; 24 h): 13.000 mg/mL
- fitted parameter d of fractional compartmental model [5, 8]: 22.79±16.41
- fitted parameter k02 of fractional compartmental model [5, 8]: 1.51±1.05
- kinetic parameter β [6]: > 1
- Vd at 1 h ([6]; 100 mg): 522 L
- Vd at 1.5 h ([6]; 100 mg): 56.1 L
- Vd at 2 h ([6]; 100 mg): 21.2 L
- Vd at 2.5 h ([6]; 100 mg): 13.7 L
- Vd at 3 h ([6]; 100 mg): 10.5 L
- Vd at 4 h ([6]; 100 mg): 8.97 L
- Vd at 6 h ([6]; 100 mg): 8.11 L
- Vd at 8 h ([6]; 100 mg): 7.78 L
- Vd at 12 h ([6]; 100 mg): 7.75 L
- Vd at 24 h ([6]; 100 mg): 7.69 L
- Calculated c2(t) ([6]; 1 h): 0.141 mg/mL
- Calculated c2(t) ([6]; 1.5 h): 1.216 mg/mL
- Dr (generalized Deborah rate number) ([6]; 1.5 h): 644.65 ×10^6
- kinetic parameter β ([6]; 1.5 h): 5.538
- Calculated c2(t) ([6]; 2 h): 3.818 mg/mL
- Dr (generalized Deborah rate number) ([6]; 2 h): 244.03 ×10^6
- kinetic parameter β ([6]; 2 h): 4.884
- Calculated c2(t) ([6]; 2.5 h): 6.832 mg/mL
- Dr (generalized Deborah rate number) ([6]; 2.5 h): 124.66 ×10^6
- kinetic parameter β ([6]; 2.5 h): 4.480
- Calculated c2(t) ([6]; 3 h): 9.093 mg/mL
- Dr (generalized Deborah rate number) ([6]; 3 h): 75.67 ×10^6
- kinetic parameter β ([6]; 3 h): 4.256
- Calculated c2(t) ([6]; 4 h): 11.349 mg/mL
- Dr (generalized Deborah rate number) ([6]; 4 h): 37.46 ×10^6
- kinetic parameter β ([6]; 4 h): 3.875
- Calculated c2(t) ([6]; 6 h): 12.560 mg/mL
- Dr (generalized Deborah rate number) ([6]; 6 h): 16.35 ×10^6
- kinetic parameter β ([6]; 6 h): 3.388
- Calculated c2(t) ([6]; 8 h): 12.846 mg/mL
- Dr (generalized Deborah rate number) ([6]; 8 h): 10.07 ×10^6
- kinetic parameter β ([6]; 8 h): 3.266
- Calculated c2(t) ([6]; 12 h): 13.001 mg/mL
- Dr (generalized Deborah rate number) ([6]; 12 h): 5.80 ×10^6
- kinetic parameter β ([6]; 12 h): 3.471
- Calculated c2(t) ([6]; 24 h): 13.073 mg/mL
- Dr (generalized Deborah rate number) ([6]; 24 h): 3.07 ×10^6
- kinetic parameter β ([6]; 24 h): 3.388

Compound: gentamicin
- Sample gentamicin amount, Average ([7]; average of S1-S3, 1 h): 187.2 µg
- Sample gentamicin amount, Average ([7]; average of S1-S3, 3 h): 221.2 µg
- Sample gentamicin amount, Average ([7]; average of S1-S3, 6 h): 171.9 µg
- Sample gentamicin amount, Average ([7]; average of S1-S3, 24 h): 191.1 µg
- Sample gentamicin amount, Average ([7]; average of S1-S3, 48 h): 195.1 µg
- Sample gentamicin amount, Average ([7]; average of S1-S3, 72 h): 189.4 µg
- Sample gentamicin amount, Average ([7]; average of S1-S3, 96 h): 199.9 µg
- Sample gentamicin amount, Average ([7]; average of S1-S3, 168 h): 241.0 µg
- Sample gentamicin amount, Average ([7]; average of S1-S3, 264 h): 247.5 µg
- Sample gentamicin amount, Average ([7]; average of S1-S3, 336 h): 255.3 µg
- c2(t), gentamicin concentration in the target compartment ([7]; 1 h): 93.6 mg/L
- c2(t), gentamicin concentration in the target compartment ([7]; 3 h): 113.4 mg/L
- c2(t), gentamicin concentration in the target compartment ([7]; 6 h): 90.5 mg/L
- c2(t), gentamicin concentration in the target compartment ([7]; 24 h): 103.3 mg/L
- c2(t), gentamicin concentration in the target compartment ([7]; 48 h): 108.4 mg/L
- c2(t), gentamicin concentration in the target compartment ([7]; 72 h): 108.3 mg/L
- c2(t), gentamicin concentration in the target compartment ([7]; 96 h): 117.6 mg/L
- c2(t), gentamicin concentration in the target compartment ([7]; 168 h): 146.1 mg/L
- c2(t), gentamicin concentration in the target compartment ([7]; 264 h): 154.7 mg/L
- c2(t), gentamicin concentration in the target compartment ([7]; 336 h): 164.7 mg/L
- Remained in the coating ([7]; 1 h): 1207.8 µg
- Remained in the coating ([7]; 3 h): 1173.8 µg
- Remained in the coating ([7]; 6 h): 1223.1 µg
- Remained in the coating ([7]; 24 h): 1203.9 µg
- Remained in the coating ([7]; 48 h): 1199.9 µg
- Remained in the coating ([7]; 72 h): 1205.6 µg
- Remained in the coating ([7]; 96 h): 1195.1 µg
- Remained in the coating ([7]; 168 h): 1154.0 µg
- Remained in the coating ([7]; 264 h): 1147.5 µg
- Remained in the coating ([7]; 336 h): 1139.7 µg

Compound: gentamicin palmitate
- kinetic parameter β ([7]; not constant, FIG. 12): well below unity
